Converted amounts (≈) assume the structure as drawn. The source made the active and inactive calls. No cut-off for these calls is given here.
How the values were obtained:
[1] = test system: MCF7; assay: Cytotoxicity against ERalpha positive human MCF7 cells; assay type: functional, cell-based
[2] = test system: MDA-MB-231; assay: Cytotoxicity against ERalpha negative human MDA-MB-231 cells; assay type: functional, cell-based
[3] = test system: A2780; assay: Cytotoxicity against ERbeta negative human A2780 cells; assay type: functional, cell-based
[4] = test system: PC-3; assay: Cytotoxicity against ERbeta positive human PC3 cells; assay type: functional, cell-based
[5] = test system: M19 melanoma cell line (human); assay: Cytotoxicity against human M19 melanoma cells
[6] = test system: MCF7; assay: Cytotoxicity against human MCF7 cells; assay type: functional, cell-based
[7] = test system: A498; assay: Cytotoxicity against human A498 cells; assay type: functional, cell-based
[8] = test system: WiDr; assay: Cytotoxicity against human WIDR cells; assay type: functional, cell-based
[9] = Cytotoxicity against human H226 cells; assay type: functional, cell-based; details: NCI-H226
[10] = Cytotoxicity against human IGROV cells; assay type: functional, cell-based
[11] = test system: EVSA-T; assay: Cytotoxicity against human EVSA-T cells; assay type: functional, cell-based
[12] = Half life in presence of 10 uM beta-glucuronidase assessed as taxol release at 100 uM; assay type: ADME
[13] = test system: OVCAR-3; assay: Cytotoxicity against human OVCAR-3 cells in presence of beta-glucuronidase; assay type: functional, cell-based
[14] = test system: OVCAR-3; assay: Cytotoxicity against human OVCAR-3 cells; assay type: functional, cell-based
[15] = test system: LoVo; assay: Cytotoxicity against human LoVo cells in presence of beta-glucuronidase; assay type: functional, cell-based
[16] = test system: LoVo; assay: Ratio of IC50 of drug for human LoVo cells to IC50 of taxol for human LoVo cells; assay type: functional

t1/2 [12] [h] | SMILES | IC50 [1] [nM] | IC50 [2] [nM] | IC50 [3] [µM] | IC50 [4] [nM] | IC50 [5] [µg/mL] | IC50 [6] [ng/mL] | IC50 [7] [µg/mL] | IC50 [8] [µg/mL] | IC50 [9] [µg/mL] | IC50 [10] [µg/mL] | IC50 [11] [ng/mL] | IC50 [13] [nM] | IC50 [14] [nM] | Activity [15] | Ratio IC50 [16]
 | CC(=O)O[C@H]1C(=O)[C@@]2(C)[C@H]([C@H](OC(=O)c3ccccc3)[C@]3(O)C[C@H](OC(=O)[C@@H](OC(=O)/C=C/C[C@@H]4C[C@H]5[C@@H]6CCc7cc(O)ccc7[C@H]6CC[C@]5(C)[C@H]4O)[C@@H](NC(=O)c4ccccc4)c4ccccc4)C(C)=C1C3(C)C)[C@]1(OC(C)=O)CO[C@@H]1C[C@@H]2O | 1600 | 2200 | 8.3 | 120 |  |  |  |  |  |  |  |  |  |  | 
 | CC(=O)O[C@H]1C(=O)[C@@]2(C)[C@H]([C@H](OC(=O)c3ccccc3)[C@]3(O)C[C@H](OC(=O)[C@H](OC(=O)N(C)CCN(C)C(=O)[C@H](CCCCN)NC(=O)[C@H](Cc4ccccc4)NC(=O)[C@@H](C)N)[C@@H](NC(=O)c4ccccc4)c4ccccc4)C(C)=C1C3(C)C)[C@]1(OC(C)=O)CO[C@@H]1C[C@@H]2O.Cl | 4.9 | 4.5 |  | 77 | 0.017 | 6.6 | 0.038 | 0.01 | 0.021 | 0.011 | 7.2 |  |  |  | 
 | CC(=O)O[C@H]1C(=O)[C@@]2(C)[C@H]([C@H](OC(=O)c3ccccc3)[C@]3(O)C[C@H](OC(=O)[C@H](OC(=O)N(C)CCNC(=O)[C@H](CCCCN)NC(=O)[C@H](Cc4ccccc4)NC(=O)[C@H](N)C(C)C)[C@@H](NC(=O)c4ccccc4)c4ccccc4)C(C)=C1C3(C)C)[C@]1(OC(C)=O)CO[C@@H]1C[C@@H]2O.Cl | 4.9 | 4.5 |  | 77 | 0.047 | > 63 | > 0.063 | 0.047 | 0.048 | 0.045 | > 63 |  |  |  | 
2 | CC(=O)O[C@H]1C(=O)[C@@]2(C)[C@H]([C@H](OC(=O)c3ccccc3)[C@]3(O)C[C@H](OC(=O)[C@H](OC(=O)CC(C)(C)CNC(=O)O[C@@H]4O[C@H](C(=O)[O-])[C@@H](O)[C@H](O)[C@H]4O)[C@@H](NC(=O)c4ccccc4)c4ccccc4)C(C)=C1C3(C)C)[C@]1(OC(C)=O)CO[C@@H]1C[C@@H]2O.[Na+] |  |  |  |  |  |  |  |  |  |  |  | 0.6 | 20 |  | 
 | CC(=O)O[C@H]1C(=O)[C@@]2(C)[C@H]([C@H](OC(=O)c3ccccc3)[C@]3(O)C[C@H](OC(=O)[C@H](OC(=O)N(C)CCN(C)C(=O)[C@H](CCCCN)NC(=O)[C@H](CC(C)C)NC(=O)[C@H](N)C(C)C)[C@@H](NC(=O)c4ccccc4)c4ccccc4)C(C)=C1C3(C)C)[C@]1(OC(C)=O)CO[C@@H]1C[C@@H]2O.Cl | 4.9 | 4.5 |  | 77 | 0.024 | 6.9 | 0.045 | 0.011 | 0.025 | 0.026 | 5.2 |  |  |  | 
 | CC(=O)O[C@H]1C(=O)[C@@]2(C)[C@H]([C@H](OC(=O)c3ccccc3)[C@]3(O)C[C@H](OC(=O)[C@H](OC(=O)OC/C=C/c4ccc([N+](=O)[O-])cc4)[C@@H](NC(=O)c4ccccc4)c4ccccc4)C(C)=C1C3(C)C)[C@]1(OC(C)=O)CO[C@@H]1C[C@@H]2O |  |  |  |  | 0.384 (≈ 0.363 µM) | 186 (≈ 0.176 µM) | 0.187 (≈ 0.177 µM) | 0.308 (≈ 0.291 µM) | 0.187 (≈ 0.177 µM) | 0.62 (≈ 0.585 µM) | 221 (≈ 0.209 µM) |  |  |  | 
 | Cn1c(=O)oc2ccc([N+](=O)[O-])cc21 |  |  |  |  |  |  |  |  |  |  |  |  |  | inactive | 3000
 | CC(=O)O[C@H]1C(=O)[C@@]2(C)[C@H]([C@H](OC(=O)c3ccccc3)[C@]3(O)C[C@H](OC(=O)[C@H](OC(=O)/C=C/C[C@@H]4C[C@H]5[C@@H]6CCc7cc(O)ccc7[C@H]6CC[C@]5(C)[C@H]4O)[C@@H](NC(=O)c4ccccc4)c4ccccc4)C(C)=C1C3(C)C)[C@]1(OC(C)=O)CO[C@@H]1C[C@@H]2O | 39 | 22 | 0.18 | 73 |  |  |  |  |  |  |  |  |  |  | 
 | CC(=O)O[C@H]1C(=O)[C@@]2(C)[C@H]([C@H](OC(=O)c3ccccc3)[C@]3(O)C[C@H](OC(=O)[C@H](OC(=O)Cc4ccc(NC(=O)O[C@@H]5O[C@H](C(=O)O)[C@@H](O)[C@H](O)[C@H]5O)cc4)[C@@H](NC(=O)c4ccccc4)c4ccccc4)C(C)=C1C3(C)C)[C@]1(OC(C)=O)CO[C@@H]1C[C@@H]2O |  |  |  |  |  |  |  |  |  |  |  | 0.23 | 0.23 |  | 
 | CC(=O)O[C@H]1C(=O)[C@@]2(C)[C@H]([C@H](OC(=O)c3ccccc3)[C@]3(O)C[C@H](OC(=O)[C@H](OC(=O)OCc4ccc(NC(=O)[C@H](CCCCN)NC(=O)[C@H](CC(C)C)NC(=O)[C@H](N)C(C)C)cc4)[C@@H](NC(=O)c4ccccc4)c4ccccc4)C(C)=C1C3(C)C)[C@]1(OC(C)=O)CO[C@@H]1C[C@@H]2O.Cl |  |  |  |  | 0.02 | 9.2 | > 0.06 | 0.011 | 0.016 | 0.027 | 9.3 |  |  |  | 

— ChEMBL document CHEMBL1140624, “Improved biochemical strategies for targeted delivery of taxoids” (Bioorg Med Chem, 2007)
